# According to patent publication US20110183978A1, “Phenylpyri(mi)dinylazoles” (Bayer CropScience AG, priority 2009, published 2011):
# Like-named read-outs stand apart in the source and are kept apart here.
# Tests used:
# Fusarium proliferatum = assay: Example I: production of fumonisin FB1 by Fusarium proliferatum (microtitre plates); format: cell-based; details: 120 h
# Fusarium graminearum = assay: microbe, parasite or virus in culture; format: cell-based
# Sphaerotheca fuliginea [1] = assay: Example L: in vivo test on Sphaerotheca fuliginea (powdery mildew on cucumber/protective); details: Podosphaera fuliginea, 168 h, cucumber, protective, assessment 7 days after inoculation, read-out: % Wirkungsgrad
# In short: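 Young cucumber plants sprayed at stated dosage with compound in DMF/alkylaryl polyglycol ether emulsifier diluted in water; inoculated with S. fuliginea spores one day later. Kept in greenhouse at 70% relative humidity, 23° C; protective activity assessed 7 days after inoculation.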
# Alternaria solani = assay: Example M: in vivo test on Alternaria solani (leaf blotch disease/tomato/protective); details: 168 h, tomato, protective, 500 ppm active substance, assessed 7 days after inoculation, read-out: % Wirkungsgrad (activity level)
# In short: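 Alternaria solani infection on tomato scored 7 days post-inoculation. Before inoculation, young plants received a protective spray at the stated application dose; formulation was compound mixed with N,N-dimethylformamide and emulsifier, water-diluted.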
# Venturia inaequalis = assay: Example O: in vivo test on Venturia inaequalis (apple scab/protective); details: 240 h, protective, assessment 10 days after inoculation, read-out: % Wirkungsgrad
# Method: (§1) Emulsifier: 1 part by weight alkylaryl polyglycol ethers For the preparation of a suitable active substance preparation, 1 part by weight of active substance is mixed with the stated quantities of solvent and emulsifier and the concentrate is diluted to the desired concentration with water. For the testing for protective activity, young plants are sprayed with the active substance preparation at the stated application dosage. […] 10 days after the inoculation, the assessment takes place.
# Botrytis cinerea = assay: Example P: in vivo test on Botrytis cinerea (gray mould on bean/protective); details: 48 h, bean, protective, 250 ppm active substance, assessed 2 days after inoculation, read-out: % Wirkungsgrad (activity level)
# Method: as §1, with “dosage. After drying of the spray coating, 2 small pieces of agar with Botrytis cinerea growing on them are laid on every leaf.” for “dosage.”, “2” for “10”, “size of the infection blotches on the leaves is assessed.” for “assessment takes place.”
# Sphaerotheca fuliginea [2] = assay: Example D: in vivo test on Sphaerotheca fuliginea (powdery mildew on cucumber); details: Podosphaera fuliginea, 288 h, cucumber plants sprayed 24 hours before inoculation, scored after 12 days, read-out: % Wirkungsgrad
# Method: In Vivo Test on Sphaerotheca Fuliginea (Powdery Mildew on Cucumber) An aqueous suspension of the active substance was prepared by homogenization of a mixture of acetone/Tween/dimethyl sulphoxide and subsequent dilution with water to the desired concentration. Cucumber plants (variety: Vert petit de Paris) are sown in cultivation dishes on a peat-pozzolanic earth substrate (50/50) at 20/23° C. and at the cotyledon stage Z10 sprayed with the aqueous suspension described above. As a control, plants are sprayed with an aqueous solution with no active substance. After 24 hours the plants are inoculated by spraying with an aqueous suspension of Sphaerotheca fuliginea spores (100,000 spores per ml). The spores are derived from a contaminated plant. The inoculated cucumber plants are incubated at ca. 20/25° C. at a relative atmospheric humidity of 60/70%. After 12 days they are scored in comparison with the control plants.
# Peronospora parasitica = assay: Example A: in vivo test on Peronospora parasitica (downy mildew on white cabbage); details: Hyaloperonospora parasitica, 120 h, cabbage plants sprayed 24 hours before inoculation, scored after 5 days, read-out: % Wirkungsgrad
# Method: In Vivo Test on Peronospora Parasitica (Downy Mildew on White Cabbage) An aqueous suspension of the active substance was prepared by homogenization of a mixture of acetone/Tween (dispersant)/dimethyl sulphoxide (DMSO) and subsequent dilution with water to the desired concentration. Cabbage plants (variety: Eminence) are sown in cultivation dishes on a peat-pozzolanic earth substrate (50/50) at 18-20° C. and sprayed at the cotyledon stage with the aqueous suspension described above. As a control, plants are sprayed with an aqueous solution with no active substance. After 24 hours, the plants are inoculated by spraying with an aqueous suspension of Peronospora parasitica spores (50,000 spores per ml). The spores are derived from infected plants. The inoculated cabbage plants are incubated for 5 days at ca. 20° C. in a moist atmosphere. After 5 days, they are scored in comparison with the control plants.
# [3] = Fusarium proliferatum growth, OD 620, 5 days, read-out: % Inhibition des Pilzwachstums bei 50 μM
# [4] = Fusarium proliferatum, 5 days at 20° C., HPLC-MS/MS, read-out: % Inhibition der FB1 produktion bei 50 μM
# [5] = 72 h, read-out: % Inhibition des Pilzwachstums bei 50 μM
# [6] = 168 h, read-out: % Inhibition der DON/AcDON produktion bei 50 μM
# [7] = LogPA (logP of the stated pure compound or, in a mixture, of the main isomer, 1-substituted 3-aryl-1H-pyrazole)
Compound,inhibition at 50 µM (Fusarium proliferatum; [3]),inhibition at 50 µM (Fusarium proliferatum; [4]),inhibition at 50 µM (Fusarium graminearum; [5]),inhibition at 50 µM (Fusarium graminearum; [6]),pest or weed control at 500 ppm (Sphaerotheca fuliginea [1]),pest or weed control at 500 ppm (Alternaria solani),pest or weed control at 100 ppm (Venturia inaequalis),pest or weed control at 250 ppm (Botrytis cinerea),chromatographic logP (physchem; LogPA),pest or weed control at 500 ppm (Sphaerotheca fuliginea [2]),chromatographic logP (physchem; [7]),pest or weed control at 500 ppm (Peronospora parasitica)
CC(C)C(=O)Nc1cc(-c2cn(CCCl)nc2-c2ccc(F)cc2)ccn1 [Compound 222],96%,100%,99%,82%,100%,90%,95%,85%,2.33,–,–,–
CC(C)(C)Cn1cc(-c2ccncc2)c(-c2c(F)cccc2F)n1 [Compound 11],–,–,–,–,73%,80%,–,–,–,93%,1.84,–
CC(C)Cn1cc(-c2ccnc(NC(=O)C(C)C)n2)c(-c2ccc(F)cc2)n1 [Compound 189],0%,90%,–,–,–,95%,84%,93%,2.92,–,–,–
CC(C)(C)C(=O)Nc1cc(-c2cn(C3CCCCO3)nc2-c2ccc(F)cc2)ccn1 (stereo not shown) [Compound 41],56%,100%,–,–,–,–,–,–,–,98%,3.19,72%
Clc1cccc(-c2nn(C3CCCCO3)cc2-c2ccncc2)c1 (stereo not shown) [Compound 28],–,–,–,–,–,–,–,–,–,–,1.55,97%
CC(C)n1cc(-c2ccnc(NC(=O)c3cccs3)c2)c(-c2ccc(F)cc2)n1 [Compound 206],–,–,75%,99%,94%,90%,83%,100%,3.14,–,–,–
FC1(F)Oc2cccc(-c3c(-c4ccncc4)cnn3C3CCCCO3)c2O1 (stereo not shown) [Compound 33],99%,99%,–,–,–,–,–,–,–,71%,1.64,93%
Fc1ccc(-c2nn(Cc3cccc(Oc4ccccc4)c3)cc2-c2ccncc2)cc1 [Compound 138],–,–,–,–,–,–,–,–,–,77%,2.36,–
CCC(C)n1cc(-c2ccnc(NC(=O)COC)c2)c(-c2ccc(F)cc2)n1 (stereo not shown) [Compound 162],–,–,99%,99%,99%,94%,96%,100%,–,–,2.95,–
CC(C)n1cc(-c2ccnc(N)c2)c(-c2ccc(F)cc2)n1 [Compound 46],–,–,–,–,–,–,–,–,–,81%,1.18,94%
Fc1ccc(-c2nn(C3CCCCO3)cc2-c2ccncc2)cc1 (stereo not shown) [Compound 9],40%,96%,–,–,90%,89%,–,–,–,75%,1.29,–
COCC(=O)Nc1cc(-c2cn(C3CCCCO3)nc2-c2ccc(F)cc2)ccn1 (stereo not shown) [Compound 23],73%,100%,–,–,–,–,–,–,–,–,2.64,100%
CCNC(=O)Nc1cc(-c2cn(C(C)C)nc2-c2ccc(F)cc2)ccn1 [Compound 211],–,–,16%,99%,93%,70%,92%,100%,2.02,–,–,–
COCCOCC(=O)Nc1cc(-c2cn(C(C)C)nc2-c2ccc(F)cc2)ccn1 [Compound 208],–,–,101%,100%,100%,80%,78%,100%,2.62,–,–,–
CC(C)=CCn1ncc(-c2ccncc2)c1-c1c(F)cccc1F [Compound 22],–,–,–,–,–,–,–,–,–,71%,1.72,97%
Clc1cccc(-c2nn(C3CCCCO3)cc2-c2ccnc3[nH]ccc23)c1 (stereo not shown) [Compound 32],–,–,–,–,–,–,–,–,–,–,2.46,79%
CC(C)On1cc(-c2ccnc(NC(=O)C3CC3)c2)c(-c2ccc(F)cc2)n1 [Compound 271],–,–,71%,99%,79%,89%,81%,93%,2.73,–,–,–
CC(C)n1cc(-c2ccnc(NC(=O)C(O)CO)c2)c(-c2ccc(F)cc2)n1 (stereo not shown) [Compound 210],–,–,85%,100%,100%,80%,78%,98%,1.76,–,–,–
COCCOCCn1cc(-c2ccncc2)c(-c2ccc(F)cc2)n1 [Compound 134],–,–,–,–,–,100%,–,–,–,85%,1.04,94%
COCC(=O)Nc1cc(-c2cn(CCCl)nc2-c2ccc(F)cc2)ccn1 [Compound 220],99%,100%,100%,99%,97%,95%,96%,100%,2.36,–,–,–
CC(C)On1cc(-c2ccnc(NC(=O)C(C)C)c2)c(-c2ccc(F)cc2)n1 [Compound 272],–,–,33%,99%,94%,94%,89%,100%,3.01,–,–,–
COC(=O)C(C)n1cc(-c2ccncc2)c(-c2ccc(F)cc2)n1 (stereo not shown) [Compound 107],–,–,–,–,–,–,–,–,–,91%,1.2,–
Cc1cc(F)ccc1-c1c(-c2ccncc2)cnn1C1CCCCO1 (stereo not shown) [Compound 37],–,–,13%,80%,–,–,–,–,–,78%,1.4,–
CC(C)n1cc(-c2ccnc(NC(=O)C3CCC3)c2)c(-c2ccc(F)cc2)n1 [Compound 156],93%,100%,99%,81%,94%,94%,91%,98%,–,–,2.57,–
Fc1ccc(-c2nn(Cc3cnc(Cl)s3)cc2-c2ccncc2)cc1 [Compound 110],–,–,–,–,–,–,–,–,–,79%,1.54,–
